Data: patent US9545393B2, “Methods and compositions for treating pain” (The Board of Trustees of the Leland Stanford Junior …, priority 2012, dated 2017)

Columns and labels:
Type in all cases: in vivo, rat
malondialdehyde (MDA) = assay: Thiobarbituric acid-reactive substance assay (malondialdehyde) in paw homogenate; conditions: rats, 3 hours after carrageenan; P<0.05
Method: Thiobarbituric acid-reactive substance assay. Thiobarbituric acid-reactive substance (TBARS) was measured using an Oxi-Tek TBARS assay kit (ZeptoMetrix, Buffalo, N.Y.). In brief, 100 μL of plantar homogenates were mixed with 100 μl sodium dodecyl sulfonate solution. TBA/buffer reagent was prepared by mixing 0.5 g thiobarbituric acid with 50 ml acetic acid and 50 ml NaOH. TBA/buffer reagent (2.5 ml) was added to 200 μL sample/sodium dodecyl sulfonate mixture and incubated at 95° C. in capped tubes for 60 min. The samples were cooled to room temperature in an ice bath for 10 min and centrifuged at 3,000 g for 15 min. The supernatants were removed, and fluorescence intensity was measured in semi-microcuvettes in a fluorometer (Bio-Rad Laboratories, Hercules, Calif.). The concentration of TBARS was expressed in pmol/mg protein by interpolation from a standard curve of malondialdehyde at 0-200 pmol concentrations. The results are expressed as percent control.

[1] = test system: 4-hydroxynonenal (4-HNE) protein adducts; assay: Western blot of 4-HNE protein adducts in inflamed paw; conditions: rats, 3 hours after carrageenan; P<0.01
Method: Biochemical Studies In Rats and Mice. Protein was isolated from rat paw tissue at 3 hours after treatment or from liver tissue of mutant or wild type mice. Tissues were homogenized in buffer containing (Hepes 10 mM, NaCl 0.9%, EGTA 1 mM, DTPA 100 μM, Triton-X 1%, Protease and Phosphatase inhibitors (AEBSF, Aprotinin, Bestatin, E-64, Leupeptin, Pepstatin A, Sodium orthovanadate, Sodium molybdate, Sodium tartrate, Imidazole, Cantharidin, (−)-p-Bromolevamisole oxalate and Calyculin A). The samples were centrifuged at 700 g for 5 min at 4° C. Mitochondrial fraction from liver was obtained as previously described (Chen, et al. (2008) Activation of aldehyde dehydrogenase-2 reduces ischemic damage to the heart. Science 321, 1493-1495; Sun, L., et al. ALDH2 activator inhibits increased myocardial infarction injury by nitroglycerin tolerance. Sci Transl Med 3, 107ra111). Activation of aldehyde dehydrogenase-2 reduces ischemic damage to the heart. Science 2008; 321:1493-5). The protein concentration was determined in the supernatants by using Bradford (Bradford, M. M. (1976). A rapid and sensitive method for the quantitation of microgram quantities of protein utilizing the principle of protein-dye binding. Anal Biochem 72, 248-254).
Western blot analysis. […] Quantification analysis of blots was performed with Image J software, using GAPDH as a loading control.

[2] = test system: rats subjected to prostaglandin E2 insult to the right hind paw; assay: Randall-Selitto paw pressure test, prostaglandin E2-induced hyperalgesia in rats
Method: Rats. Male Wistar rats (170-190 g) were provided by Charles River Laboratories or Butantan Institute Animal Facility and housed in a temperature-controlled (22±1° C.) and light-controlled (12/12 h light/dark cycle) room. All rats were housed in their surrounding for at least 3 days. Groups of 5-6 rats were used.
Drugs Used. 0.1 ml saline (control), carrageenan (200 μg for rats, 100 μg for mice; Marine Colloids), or prostaglandin E2 (100 ng, Sigma) was administered by intraplantar injection into the right hind paw to induce hyperalgesia. […]
Nociception Assessment. […] Nociceptive response was assessed by the von Frey method for mice and the Randall-Selitto method for rats immediately before and 180 minutes after carrageenan or prostaglandin E2 injection. […]
Randall-Selitto method: Nociceptive threshold was determined using the Randall-Selitto paw pressure test (Ugo-Basile), as previously described (Gutierrez V P, et al., (2008) Crotalphine induces potent antinociception in neuropathic pain by acting at peripheral opioid receptors. European journal of pharmacology 594: 84-92). […]

Compound: O=C(NCc1ccc2c(c1)OCO2)c1c(Cl)cccc1Cl [Alda-1, N-(1,3-benzodioxol-5-ylmethyl)-2,6-dichlorobenzamide]
- Malondialdehyde (MDA) levels in the inflamed paw (malondialdehyde (MDA)): reduced
- 4-HNE-protein adduct levels in the inflamed paw [1]: reduced
- Increase of nociceptive threshold ([2]; prostaglandin E2-induced model, Alda-1 2 mg/kg s.c. 15 min before and 30 and 150 min after insult, tested 3 hours after insult): 2 fold
- Nociceptive threshold (FIG. 1B) ([2]; prostaglandin E2 insult, Alda-1 2 mg/kg s.c., 3 hours after insult, P<0.001): significantly increased nociceptive threshold
